Source: patent publication US4476120A, “Thiolic derivatives of erythromycin having therapeutic activity, and pharmaceutical compositions containing them” (Sigma Tau Indistrie Farmaceutiche Riunites, p.A, priority 1982, dated 1984)
Converted amounts (≈) assume the structure as drawn.

Assays:
[1] = C.A. 93 38279f; cited from earlier work
[2] = system: Ps. aeruginosa SS 10; format: cell-based; details: Brain Heart Infusion, estolate and RV11-RV15 previously hydrolized, unit assumed
[3] = system: E. aerogenes SS 011; format: cell-based; details: Brain Heart Infusion, estolate and RV11-RV15 previously hydrolized, unit assumed
[4] = system: B. cereus ATCC 11778; format: cell-based; details: Brain Heart Infusion, estolate and RV11-RV15 previously hydrolized, unit assumed
[5] = system: D. pneumoniae SS 23; format: cell-based; details: Brain Heart Infusion, estolate and RV11-RV15 previously hydrolized, unit assumed
[6] = system: Strept. haemolyticus SS 18; format: cell-based; details: Brain Heart Infusion, estolate and RV11-RV15 previously hydrolized, unit assumed
[7] = system: Staph. aureus SS 07; format: cell-based; details: Brain Heart Infusion, estolate and RV11-RV15 previously hydrolized, unit assumed
[8] = system: Br. abortus SS 7; format: cell-based; details: Brain Heart Infusion, estolate and RV11-RV15 previously hydrolized, unit assumed
[9] = system: B. subtilis SS 127; format: cell-based; details: Brain Heart Infusion, estolate and RV11-RV15 previously hydrolized, unit assumed
[10] = system: Staph. aureus SS 07; assay: Experimental infection induced by Staph. aureus SS 07; format: in vivo, Swiss white mice; details: Staphylococcus aureus, SS07, in Mus musculus, po, 168 h, os; Staph. aureus SS 07; mg/kg of erythromycin; survival after 7 days; read-out: ED50 (reliability limits)
Method: (§1) Swiss white mice of 20 g body weight were used, infected by parenteral administration of lethal amounts of pathogenic […] of Staph. aureus SS 07 and D. pneumoniae SS 23.
(§2) The antibiotics were administered at the time of injecting the infecting germ and 6 and 24 hours later. On the basis of the survival after 7 days, the ED50 values were determined, as reported in the following table II and III, wherein the reliability limits are indicated in brackets.

[11] = system: E. coli SS 05; format: cell-based; details: Brain Heart Infusion, estolate and RV11-RV15 previously hydrolized, unit assumed
[12] = system: Staph. albus SS 04; format: cell-based; details: Brain Heart Infusion, estolate and RV11-RV15 previously hydrolized, unit assumed
[13] = system: Sr. marcescens SS 03; format: cell-based; details: Brain Heart Infusion, estolate and RV11-RV15 previously hydrolized, unit assumed
[14] = system: Staph. albus SS 03; format: cell-based; details: Brain Heart Infusion, estolate and RV11-RV15 previously hydrolized, unit assumed
[15] = system: E. coli SS 04; format: cell-based; details: Brain Heart Infusion, estolate and RV11-RV15 previously hydrolized, unit assumed
[16] = system: Kl. pneumoniae SS 04; format: cell-based; details: Brain Heart Infusion, estolate and RV11-RV15 previously hydrolized, unit assumed
From the text: (§3) In the following table I the MIC/ml values are indicated corresponding to the lowest concentration capable of inducing a complete inhibition of the bacterial development.

[17] = system: H. tubercolosis SS 03; format: cell-based; details: Brain Heart Infusion, estolate and RV11-RV15 previously hydrolized, unit assumed
From the text: as §3

[18] = system: S. lutea ATCC 9341; format: cell-based; details: Brain Heart Infusion, estolate and RV11-RV15 previously hydrolized, unit assumed
[19] = system: Strept. haemolyticus SS 17; format: cell-based; details: Brain Heart Infusion, estolate and RV11-RV15 previously hydrolized, unit assumed
[20] = Acute toxicity; format: in vivo; details: mouse, in vivo, po; os; mortality 10 days after treatment; mice; read-out: LD50 (reliability limits)
Method: The acute toxicity was assessed in Swiss white mice by oral and intravenous route. The LD50 values have been calculated by the methods of Probits, starting from the mortality recorded 10 days after the treatment.

[21] = system: Staph. aureus SS 08; format: cell-based; details: Brain Heart Infusion, estolate and RV11-RV15 previously hydrolized, unit assumed
[22] = system: B. subtilis ATCC 6633; format: cell-based; details: Brain Heart Infusion, estolate and RV11-RV15 previously hydrolized, unit assumed
[23] = system: Pr. mirabilis SS 09; format: cell-based; details: Brain Heart Infusion, estolate and RV11-RV15 previously hydrolized, unit assumed
[24] = system: Br. melitensis SS 19; format: cell-based; details: unit assumed
[25] = system: E. coli SS 06; format: cell-based; details: Brain Heart Infusion, estolate and RV11-RV15 previously hydrolized, unit assumed
[26] = system: C. albicans SS 04; format: cell-based; details: Brain Heart Infusion, estolate and RV11-RV15 previously hydrolized, unit assumed
[27] = system: Citrobacter SS 09; format: cell-based; details: Brain Heart Infusion, estolate and RV11-RV15 previously hydrolized, unit assumed
[28] = system: S. infantis SS 08; format: cell-based; details: Brain Heart Infusion, estolate and RV11-RV15 previously hydrolized, unit assumed
[29] = Hematic levels in the rat (absorption by oral route); details: 100 mg/kg as erythromycin, average, 100 mg/kg
[30] = system: D. pneumoniae SS 23; assay: Experimental infection induced by D. pneumoniae SS 23; format: in vivo, Swiss white mice; details: Streptococcus pneumoniae, SS23, in Mus musculus, po, 168 h, os; D. pneumoniae SS 23; mg/kg of erythromycin; survival after 7 days; read-out: ED50 (reliability limits)
Method: as §1, §2

[31] = system: Pr. vulgaris SS 10; format: cell-based; details: Brain Heart Infusion, estolate and RV11-RV15 previously hydrolized, unit assumed
[32] = system: Staph. aureus SS 10; format: cell-based; details: Brain Heart Infusion, estolate and RV11-RV15 previously hydrolized, unit assumed
[33] = system: Cl. tetani SS 17; format: cell-based; details: Brain Heart Infusion, estolate and RV11-RV15 previously hydrolized, unit assumed
[34] = system: Citrobacter SS 05; format: cell-based; details: Brain Heart Infusion, estolate and RV11-RV15 previously hydrolized, unit assumed
[35] = system: E. cloacae SS 07; format: cell-based; details: Brain Heart Infusion, estolate and RV11-RV15 previously hydrolized, unit assumed
[36] = system: E. coli SS 07; format: cell-based; details: Brain Heart Infusion, estolate and RV11-RV15 previously hydrolized, unit assumed
[37] = system: B. anthranis SS 09; format: cell-based; details: B. anthranis SS 09 (14 bis); Brain Heart Infusion; estolate and RV11-RV15 previously hydrolized; unit assumed
[38] = system: C. diphtheriae SS 19; format: cell-based; details: Brain Heart Infusion, estolate and RV11-RV15 previously hydrolized, unit assumed
[39] = system: N. meningitidis SS 04; format: cell-based; details: Brain Heart Infusion, estolate and RV11-RV15 previously hydrolized, unit assumed
[40] = system: B. anthranis SS 08; format: cell-based; details: Brain Heart Infusion, estolate and RV11-RV15 previously hydrolized, unit assumed
[41] = system: N. gonorreae SS 27; format: cell-based; details: Brain Heart Infusion, estolate and RV11-RV15 previously hydrolized, unit assumed
[42] = system: H. pertussis SS 03; format: cell-based; details: Brain Heart Infusion, estolate and RV11-RV15 previously hydrolized, unit assumed
[43] = system: S. heidelberg SS 18; format: cell-based; details: Brain Heart Infusion, estolate and RV11-RV15 previously hydrolized, unit assumed
[44] = system: Staph. aureus SS 09; format: cell-based; details: Brain Heart Infusion, estolate and RV11-RV15 previously hydrolized, unit assumed
[45] = system: Kl. aerogenes SS 71; format: cell-based; details: Brain Heart Infusion, estolate and RV11-RV15 previously hydrolized, unit assumed
[46] = system: Strept. faecalis SS 19; format: cell-based; details: Brain Heart Infusion, estolate and RV11-RV15 previously hydrolized, unit assumed
[47] = system: H. influentiae SS 02; format: cell-based; details: Brain Heart Infusion, estolate and RV11-RV15 previously hydrolized, unit assumed

For `CC(=O)N[C@@H](CS)C(=O)O` [acetylcysteine], which “action with respect to the activity of antibiotics” value [1] is on record?
Its value is “inhibiting action with respect to the activity of antibiotics”.

Which results are given for `CC[C@H]1OC(=O)[C@H](C)[C@@H](O[C@H]2C[C@@](C)(OC)[C@@H](O)[C@H](C)O2)[C@H](C)[C@@H](O[C@@H]2O[C@H](C)C[C@H](N(C)C)[C@H]2O)[C@](C)(O)C[C@@H](C)C(=O)[C@H](C)[C@@H](O)[C@]1(C)O` [erythromycin]?
MIC [2]: 100 µg/mL (≈ 136 µM); MIC [3]: 100 µg/mL (≈ 136 µM); MIC [4]: 0.4 µg/mL (≈ 0.545 µM); MIC [5]: 0.05 µg/mL (≈ 0.0681 µM); MIC [6]: 1.5 µg/mL (≈ 2.04 µM); MIC [7]: 0.025 µg/mL (≈ 0.0341 µM); MIC [8]: 12 µg/mL (≈ 16.4 µM); MIC [9]: 0.05 µg/mL (≈ 0.0681 µM); ED50 [10]: 2.09 mg/kg; MIC [11]: 50 µg/mL (≈ 68.1 µM); MIC [12]: 0.05 µg/mL (≈ 0.0681 µM); MIC [13]: 200 µg/mL (≈ 273 µM); MIC [14]: 0.05 µg/mL (≈ 0.0681 µM); MIC [15]: 100 µg/mL (≈ 136 µM); MIC [16]: 100 µg/mL (≈ 136 µM); MIC [17]: 50 µg/mL (≈ 68.1 µM); MIC [18]: 0.01 µg/mL (≈ 0.0136 µM); MIC [19]: 3 µg/mL (≈ 4.09 µM); LD50 at 240 h [20]: > 3000 mg/kg; MIC [21]: 0.025 µg/mL (≈ 0.0341 µM); MIC [22]: 0.025 µg/mL (≈ 0.0341 µM); MIC [23]: > 200 µg/mL; MIC [24]: 3 µg/mL (≈ 4.09 µM); MIC [25]: 100 µg/mL (≈ 136 µM); MIC [26]: 100 µg/mL (≈ 136 µM); MIC [27]: > 200 µg/mL; MIC [28]: 100 µg/mL (≈ 136 µM); Hematic levels in the rat ([29]; 2 hours, 120 min): 1.15 µg/mL; Hematic levels in the rat ([29]; 6 hours, 360 min): 0.03 µg/mL; concentration at 0.3 h ([29]; rat, blood, po, Hematic levels in the rat, 0.30 hours): 710 ng/mL; concentration at 1 h ([29]; rat, blood, po, Hematic levels in the rat, 1 hour): 1030 ng/mL; concentration at 3 h ([29]; rat, blood, po, Hematic levels in the rat, 3 hours): 1050 ng/mL; concentration at 4 h ([29]; rat, blood, po, Hematic levels in the rat, 4 hours): 370 ng/mL; concentration at 5 h ([29]; rat, blood, po, Hematic levels in the rat, 5 hours): 260 ng/mL; ED50 [30]: 114 mg/kg; MIC [31]: > 200 µg/mL; MIC [32]: 0.1 µg/mL (≈ 0.136 µM); MIC [33]: 0.4 µg/mL (≈ 0.545 µM); MIC [34]: > 200 µg/mL; MIC [35]: > 200 µg/mL; MIC [36]: 50 µg/mL (≈ 68.1 µM); MIC [37]: 0.4 µg/mL (≈ 0.545 µM); MIC [38]: 0.01 µg/mL (≈ 0.0136 µM); MIC [39]: 0.8 µg/mL (≈ 1.09 µM); MIC [40]: 0.4 µg/mL (≈ 0.545 µM); MIC [41]: 0.8 µg/mL (≈ 1.09 µM); MIC [42]: 0.4 µg/mL (≈ 0.545 µM); MIC [43]: 100 µg/mL (≈ 136 µM); MIC [44]: 0.1 µg/mL (≈ 0.136 µM); MIC [45]: 50 µg/mL (≈ 68.1 µM); MIC [46]: 0.1 µg/mL (≈ 0.136 µM); MIC [47]: 1.5 µg/mL (≈ 2.04 µM)
